Read-outs that look alike come from different tables or passages of the source.
What was measured:
Format in all cases: cell-based
[1] = system: A2780/DDPT ovarian cancer cell line (platinum resistant); test: MTS cell viability assay, growth inhibition, A2780/DDPT
Method: (§1) Cytotoxicity was measured in six cell lines: two colorectal carcinoma cell lines (HT29 and HCT-116); two small cell lung cancer cell lines (NCI-H69 and NCI-H69/AR); and two ovarian cancer cell lines (A2780 and A2780/DPPt). Viable cell number was measured using the MTS cell viability assay ([…] 96 AQueous One Solution Cell Proliferation Assay kit available from Promega, US). […] Cisplatin was prepared in saline. […] All tumor lines were propagated under sterile conditions and incubated at 37° C. in HEPA-filtered CO2 tissue culture incubators with 5% CO2 and 95% humidity in colorless RPMI 1640 medium (Mediatech, Herndon, Va.) containing 5% fetal bovine serum (complete medium). The ovarian and colon tumor cell lines were plated in microtiter plates at a density of 5,000 cells per well. The lung lines were plated at a density of 10,000 cells per well. Viable cell number was measured by the MTS dye conversion assay after a total of 72 hours of treatment. […] The plates were incubated for four hours at 37° C. The absorbance was measured at 490 nm on a Coulter microplate reader.

[2] = system: NCI-H69/AR small cell lung cancer cell line; test: MTS cell viability assay, growth inhibition, NCI-H69/AR; conditions: NCI-H69/AR cells, 72 hours of treatment
Method: as §1

[3] = system: NCI-H69 small cell lung cancer cell line; test: MTS cell viability assay, growth inhibition, NCI-H69; conditions: NCI-H69 cells, 72 hours of treatment
Method: as §1

[4] = system: HCT-116 colorectal carcinoma cell line; test: MTS cell viability assay, growth inhibition, HCT-116; conditions: HCT-116 cells, 72 hours of treatment
Method: as §1

[5] = system: A2780 ovarian cancer cell line; test: MTS cell viability assay, growth inhibition, A2780; conditions: A2780 cells
Method: as §1

[6] = system: HT29 colorectal carcinoma cell line; test: MTS cell viability assay, growth inhibition, HT29; conditions: HT29 cells, 72 hours of treatment
Method: as §1

[7] = A2780/DDPT cells, 72 hours of treatment, MTS, read-out: Growth Inhibition (GI50) A2780/DDPT
[8] = 72 hours of treatment, MTS, read-out: Growth Inhibition (GI50) A2780
[9] = A2780 (platinum resistant) cells, method of Example 10 (text of Examples 8 and 9), read-out: GI50 for A2780 (platinum resistant)
[10] = method of Example 10 (text of Examples 8 and 9), read-out: GI50 for A2780

| Compound | GI50 [1, 7] | GI50 [2] | GI50 [3] | GI50 [4] | GI50 [5, 8] | GI50 [6] | GI50 [1, 9] | GI50 [5, 10] |
| --- | --- | --- | --- | --- | --- | --- | --- | --- |
| 1,3-Diamino-2-hydroxypropane-N,N,N′,N′-tetraacetic-acid-diplatinum [DAPTA-diplatinum] | > 100 µM | 21 µM | 27 µM | 81 µM | 20 µM | > 100 µM | – | – |
| N.N.[Cl][Pt][Cl] [Cisplatin, cis-diaminedichloroplatinum (II), reference compound] | 57 µM | 15 µM | 15 µM | 43 µM | 15 µM | 61 µM | 57 µM | 15 µM |
| diethylenetriamine-N,N,N′,N″,N″-pentaacetic-acid-diplatinum [DTPA-diplatinum] | 62 µM | 23 µM | 18 µM | 41 µM | 19 µM | 54 µM | – | – |
| diethylenetriamine-N,N,N′,N″,N″-pentaacetic-acid-triplatinum [DTPA-triplatinum] | – | – | – | – | – | – | 63 µM | 19 µM |
| ethylene glycol-bis-(β-aminoethyl)-N,N,N′,N′-tetraacetic-acid-diplatinum [EGTA-diplatinum] | – | > 100 µM | > 100 µM | > 100 µM | > 100 µM | – | – | – |
| triethylene-tetraamine-N,N,N′,N″,N′″,N′″-hexaacetic-acid-diplatinum [TTHA-diplatinum] | 48 µM | 16 µM | 9.3 µM | 23 µM | 7.1 µM | 53 µM | – | – |
| triethylenetetraamine-N,N,N′,N″,N′″,N′″-hexaacetic-acid-tetraplatinum [TTHA-tetraplatinum] | – | – | – | – | – | – | 50 µM | 7 µM |
